Test results: PubChem BioAssay AID330 (DTP/NCI, 2004)
Where “and” joins values, the source holds several entries; their conditions need not be identical. Identical values can stand only once. Toxic doses and inconclusive results are not listed.

Test system: P388 leukemia ip, CD2F1 mice, survival T/C
Test: NCI In Vivo Anticancer Drug Screen. Data for tumor model P388 Leukemia (intraperitoneal) in CD2F1 (CDF1) mice
Conditions: endpoint: median survival time, higher = longer survival
Summary of the method: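 Mice carrying the transplanted tumor received test compound or vehicle. Survival was recorded in each group, and the value is the treated-group measurement divided by that of the vehicle-treated control group.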

[1] = dose: 60.0 mg/kg/injection, schedule: Q01DX005 (ip), vehicle: saline with Tween-80
[2] = dose: 120.0 mg/kg/injection, schedule: Q01DX005 (ip), vehicle: saline with Tween-80
[3] = dose: 50.0 mg/kg/injection, schedule: Q01DX009 (ip), vehicle: saline
[4] = dose: 100.0 mg/kg/injection, schedule: Q01DX009 (ip), vehicle: saline
[5] = dose: 200.0 mg/kg/injection, schedule: Q01DX009 (ip), vehicle: saline
[6] = dose: 50.0 mg/kg/injection, schedule: Q01DX009 (ip), vehicle: saline with Tween-80
[7] = dose: 100.0 mg/kg/injection, schedule: Q01DX009 (ip), vehicle: saline with Tween-80
[8] = dose: 200.0 mg/kg/injection, schedule: Q01DX009 (ip), vehicle: saline with Tween-80
[9] = dose: 50.0 mg/kg/injection, schedule: Q01DX005 (ip), vehicle: Klucel (hydroxypropylcellulose) (HPC)
[10] = dose: 100.0 mg/kg/injection, schedule: Q01DX005 (ip), vehicle: Klucel (hydroxypropylcellulose) (HPC)
[11] = dose: 200.0 mg/kg/injection, schedule: Q01DX005 (ip), vehicle: Klucel (hydroxypropylcellulose) (HPC)
[12] = dose: 50.0 mg/kg/injection, schedule: Q01DX005 (ip), vehicle: saline with Tween-80
[13] = dose: 100.0 mg/kg/injection, schedule: Q01DX005 (ip), vehicle: saline with Tween-80
[14] = dose: 200.0 mg/kg/injection, schedule: Q01DX005 (ip), vehicle: saline with Tween-80

`Cc1c(COC(=O)NC2CCCCC2)c(COC(=O)NC2CCCCC2)c2c3ccccc3c3ccccc3n12` was tested, and the T/C (dose: 12.5 mg/kg/injection, schedule: Q01DX009 (ip), vehicle: distilled water + Tween-80) was 106 % of control, the T/C (dose: 25.0 mg/kg/injection, schedule: Q01DX009 (ip), vehicle: distilled water + Tween-80) was 100 % of control and 93 % of control and the T/C (dose: 50.0 mg/kg/injection, schedule: Q01DX009 (ip), vehicle: distilled water + Tween-80) was 101 % of control and 106 % of control. The T/C (dose: 100.0 mg/kg/injection, schedule: Q01DX009 (ip), vehicle: distilled water + Tween-80) was 101 % of control and 110 % of control and the T/C (dose: 200.0 mg/kg/injection, schedule: Q01DX009 (ip), vehicle: distilled water + Tween-80) was 110 % of control.
With `COC(=O)c1nc(N)nc(C(=O)OC)c1C(=O)c1ccc(C)cc1` the T/C [1] was 98 % of control and the T/C [2] was 100 % of control.
For `CC(C)C(=O)CP(=O)(O)O`, the T/C [3] was 106 % of control, the T/C [4] was 101 % of control and the T/C [5] was 108 % of control.
`COc1ccc(C(=O)c2ncccc2C)cc1OC` was tested, and the T/C (dose: 50.0 mg/kg/injection, schedule: Q01DX009 (ip), vehicle: other) was 95 % of control, the T/C (dose: 100.0 mg/kg/injection, schedule: Q01DX009 (ip), vehicle: other) was 99 % of control and the T/C (dose: 200.0 mg/kg/injection, schedule: Q01DX009 (ip), vehicle: other) was 95 % of control.
`COC(OC)C1(O)CC(C(C)C)OC(=O)N1` (stereo not given) was tested, and the T/C (dose: 100.0 mg/kg/injection, schedule: Q04DX003 (ip), vehicle: saline) was 100 % of control, the T/C (dose: 200.0 mg/kg/injection, schedule: Q04DX003 (ip), vehicle: saline) was 108 % of control and the T/C (dose: 400.0 mg/kg/injection, schedule: Q04DX003 (ip), vehicle: saline) was 100 % of control.
In the case of `CCOC(=O)NC(=S)Nc1cccs1`, the T/C [6] is reported as 91 % of control, the T/C [7] is reported as 100 % of control and the T/C [8] is reported as 101 % of control.
`COC1=Cc2nc3ccccc3nc2OC1(C)C` was tested, and the T/C [1] was 110 % of control, the T/C [2] was 100 % of control and the T/C (dose: 240.0 mg/kg/injection, schedule: Q01DX005 (ip), vehicle: saline with Tween-80) was 92 % of control.
`O=C1CCCc2c1cc(C1CCCC1)c1ccccc21` was tested, and the T/C (dose: 60.0 mg/kg/injection, schedule: Q01DX005 (ip), vehicle: Klucel (hydroxypropylcellulose) (HPC)) was 104 % of control, the T/C (dose: 120.0 mg/kg/injection, schedule: Q01DX005 (ip), vehicle: Klucel (hydroxypropylcellulose) (HPC)) was 94 % of control and the T/C (dose: 240.0 mg/kg/injection, schedule: Q01DX005 (ip), vehicle: Klucel (hydroxypropylcellulose) (HPC)) was 101 % of control.
`OC1OCC2CC3c4cc5c(cc4CCN3CC21)OCO5` (stereo not given) was tested, and the T/C (dose: 0.63 mg/kg/injection, schedule: Q01DX009 (ip), vehicle: distilled water + Tween-80) was 103 % of control, the T/C (dose: 1.25 mg/kg/injection, schedule: Q01DX009 (ip), vehicle: distilled water + Tween-80) was 109 % of control and the T/C (dose: 2.5 mg/kg/injection, schedule: Q01DX009 (ip), vehicle: distilled water + Tween-80) was 108 % of control. The T/C (dose: 5.0 mg/kg/injection, schedule: Q01DX009 (ip), vehicle: distilled water + Tween-80) was 100 % of control, the T/C (dose: 10.0 mg/kg/injection, schedule: Q01DX009 (ip), vehicle: distilled water + Tween-80) was 103 % of control and the T/C (dose: 20.0 mg/kg/injection, schedule: Q01DX009 (ip), vehicle: distilled water + Tween-80) was 103 % of control.
For `NC(=O)c1c(-c2ccccc2)nc2n1CCS2`, the T/C (dose: 100.0 mg/kg/injection, schedule: Q01DX001 (ip), vehicle: Klucel (hydroxypropylcellulose) (HPC)) was 106 % of control, the T/C (dose: 200.0 mg/kg/injection, schedule: Q01DX001 (ip), vehicle: Klucel (hydroxypropylcellulose) (HPC)) was 109 % of control and the T/C (dose: 400.0 mg/kg/injection, schedule: Q01DX001 (ip), vehicle: Klucel (hydroxypropylcellulose) (HPC)) was 107 % of control.
In the case of `O=C1c2ccccc2N(Cc2cccc(F)c2)C2=NCCCC12` (stereo not given), the T/C [9] is reported as 113 % of control, the T/C [10] is reported as 116 % of control and the T/C [11] is reported as 100 % of control.
In the case of `Cc1ccc(S(=O)(=O)CCC(=O)c2ccc([N+](=O)[O-])cc2)cc1`, the T/C [9] is reported as 96 % of control, the T/C [10] is reported as 96 % of control and the T/C [11] is reported as 96 % of control.
With `COc1ccc2c(c1)CCCN2` the T/C (dose: 25.0 mg/kg/injection, schedule: Q01DX009 (ip), vehicle: saline with Tween-80) was 105 % of control and 108 % of control, the T/C [6] was 103 % of control and 108 % of control and the T/C [7] was 117 % of control.
For `O=C1CCCC12CCCC2=O`, the T/C [6] was 103 % of control, the T/C [7] was 100 % of control and the T/C [8] was 109 % of control.
With `Clc1ccccc1C(=Nc1ccccc1)C(=Nc1ccccc1)c1ccccc1Cl` the T/C (dose: 100.0 mg/kg/injection, schedule: Q04DX002 (ip), vehicle: Klucel (hydroxypropylcellulose) (HPC)) was 99 % of control, the T/C (dose: 200.0 mg/kg/injection, schedule: Q04DX002 (ip), vehicle: Klucel (hydroxypropylcellulose) (HPC)) was 102 % of control and the T/C (dose: 400.0 mg/kg/injection, schedule: Q04DX002 (ip), vehicle: Klucel (hydroxypropylcellulose) (HPC)) was 96 % of control.
In the case of `CC(=O)/C(Cl)=N\O`, the T/C (dose: 3.12 mg/kg/injection, schedule: Q01DX005 (ip), vehicle: saline) is reported as 100 % of control, the T/C (dose: 6.25 mg/kg/injection, schedule: Q01DX005 (ip), vehicle: saline) is reported as 107 % of control and the T/C (dose: 12.5 mg/kg/injection, schedule: Q01DX005 (ip), vehicle: saline) is reported as 109 % of control.
`C1=C2COCOC3CCN(C1)C23` (stereo not given) was tested, and the T/C (dose: 34.32 mg/kg/injection, schedule: Q01DX005 (ip), vehicle: saline) was 101 % of control, the T/C (dose: 68.64 mg/kg/injection, schedule: Q01DX005 (ip), vehicle: saline) was 107 % of control and the T/C (dose: 137.28 mg/kg/injection, schedule: Q01DX005 (ip), vehicle: saline) was 108 % of control.
In the case of `N#CC1CCCCC1C1(C#N)CCCCC1Cc1nccc2ccccc12` (stereo not given), the T/C (dose: 100.0 mg/kg/injection, schedule: Q04DX003 (ip), vehicle: saline with Tween-80) is reported as 95 % of control, the T/C (dose: 200.0 mg/kg/injection, schedule: Q04DX003 (ip), vehicle: saline with Tween-80) is reported as 100 % of control and the T/C (dose: 400.0 mg/kg/injection, schedule: Q04DX003 (ip), vehicle: saline with Tween-80) is reported as 86 % of control.
In the case of `OC1(c2ccc(-c3ccc(-c4ccc(C5(O)C(c6ccccc6)=C(c6ccccc6)C(c6ccccc6)=C5c5ccccc5)cc4)cc3)cc2)C(c2ccccc2)=C(c2ccccc2)C(c2ccccc2)=C1c1ccccc1`, the T/C (dose: 100.0 mg/kg/injection, schedule: Q04DX003 (ip), vehicle: Klucel (hydroxypropylcellulose) (HPC)) is reported as 93 % of control, the T/C (dose: 200.0 mg/kg/injection, schedule: Q04DX003 (ip), vehicle: Klucel (hydroxypropylcellulose) (HPC)) is reported as 90 % of control and the T/C (dose: 400.0 mg/kg/injection, schedule: Q04DX003 (ip), vehicle: Klucel (hydroxypropylcellulose) (HPC)) is reported as 93 % of control.
With `COC1OC(CO)C(O)C(O)C1NC(C)=O` (stereo not given) the T/C [12] was 99 % of control, the T/C [13] was 100 % of control and the T/C [14] was 104 % of control.
For `CC(=O)[C@]1(O)Cc2c(O)c3c(c(O)c2[C@@H](OC2CC(NC(=O)C(F)(F)F)C(O)C(C)O2)C1)C(=O)c1c(O)cccc1C3=O` (stereo not given in full), the T/C (dose: 12.5 mg/kg/injection, schedule: Q04DX003 (ip), vehicle: water) was 96 % of control, the T/C (dose: 25.0 mg/kg/injection, schedule: Q04DX003 (ip), vehicle: water) was 118 % of control and the T/C (dose: 100.0 mg/kg/injection, schedule: Q04DX003 (ip), vehicle: water) was 118 % of control. The T/C (dose: 200.0 mg/kg/injection, schedule: Q04DX003 (ip), vehicle: water) was 214 % of control.
With `C#Cc1cccc(N=Cc2cc(Cl)cc(Cl)c2O)c1` the T/C [12] was 102 % of control, the T/C [13] was 102 % of control and the T/C [14] was 108 % of control.
In the case of `NC(=S)c1ccccc1N=Cc1cccs1`, the T/C (dose: 100.0 mg/kg/injection, schedule: Q01DX001 (ip), vehicle: saline) is reported as 100 % of control, the T/C (dose: 200.0 mg/kg/injection, schedule: Q01DX001 (ip), vehicle: saline) is reported as 102 % of control and the T/C (dose: 400.0 mg/kg/injection, schedule: Q01DX001 (ip), vehicle: saline) is reported as 98 % of control.
For `O=P(O)(O)O`, the T/C (dose: 60.0 mg/kg/injection, schedule: Q01DX005 (ip), vehicle: saline) was 97 % of control, the T/C (dose: 120.0 mg/kg/injection, schedule: Q01DX005 (ip), vehicle: saline) was 97 % of control and the T/C (dose: 240.0 mg/kg/injection, schedule: Q01DX005 (ip), vehicle: saline) was 90 % of control.
With `ClC1(Cl)CC1[Se]c1ccccc1` (stereo not given) the T/C [3] was 100 % of control, the T/C [4] was 102 % of control and the T/C [5] was 99 % of control.
